These are literature values, as cited in US10183022B2, “Pharmaceutical composition for treating ulcerative colitis” (EA Pharma Co., Ltd., priority 2014, dated 2019).

For the data set, the system named is administered patients. The following applies: among the administered patients, intravenous infusion; cited from earlier work.

For the substance “Infliximab: anti-TNFα antibody, given by intravenous infusion”, the “Patients showing the loss of the response” value is listed as no more than 70%.
